Data from patent publication US12528826B2, “[1,4]oxazepino[2,3-c]quinolinone derivatives as BCL6 inhibitors” (Cancer Research Technology Limited, priority 2019, dated 2026).

These molecules were tested against T1, Trx-6×His-BCL6 (human BCL6 BTB domain covering amino-acid sequence 5-129) (Homo sapiens, UniProt P41182) (assay: HTRF assay (BCL6 / BCOR peptide)). Conditions: 1 nM Trx-6×His-BCL6, 300 nM BCOR-AF633 peptide, 2 hours incubation at room temperature.
T1 construct: made in house
Type: binding
Experimental: After 2 hours incubation at room temperature the plate was read on a Pherastar FSX (BMG Labtech) plate reader equipped with 337 nm laser excitation filter, a first emission filter at 620 nm and a second emission filter at 665 nm. The % inhibition at each concentration was calculated by normalising FRET ratio to the appropriate high (DMSO with all reagents) and low (DMSO without BCL6) controls.
For “(S)-10-((5-chloro-2-((R)-4,4-difluoro-3-methylpiperidin-1-yl)pyrimidin-4-yl)amino)-2-cyclopropyl-3,3-difluoro-7-methyl-1,2,3,4-tetrahydro-[1,4]oxazepino[2,3-c]quinolin-6(7H)-one or (S)-10-((5-chloro-2-((S)-4,4-difluoro-3-methylpiperidin-1-yl)pyrimidin-4-yl)amino)-2-cyclopropyl-3,3-difluoro-7-methyl-1,2,3,4-tetrahydro-[1,4]oxazepino[2,3-c]quinolin-6(7H)-one [Example 14b]”, the “HTRF avg pIC50” value was 7.33.
With `C[C@@H]1C[C@H](N(C)C)CN(c2ncc(Cl)c(Nc3ccc4c(c3)c3c(c(=O)n4C)OCC(F)(F)[C@H](C4CC4)N3)n2)C1` [Example 1h, (S)-10-((5-chloro-2-((3S,5R)-3-(dimethylamino)-5-methylpiperidin-1-yl)pyrimidin-4-yl)amino)-2-cyclopropyl-3,3-difluoro-7-methyl-1,2,3,4-tetrahydro-[1,4]oxazepino[2,3-c]quinolin-6(7H)-one] the “HTRF avg pIC50” value was 8.44.

Same assay, conditions: 1 nM Trx-6×His-BCL6, 300 nM BCOR-AF633 peptide, 2 hours incubation at room temperature; read-out: HTRF avg pIC50 (converted)
For `Cn1c(=O)c2c(c3cc(Nc4cc(N5CCC(F)(F)CC5)ncc4F)ccc31)N[C@@H](C1CC1)C(F)(F)CO2` [Example 13f04, (S)-2-cyclopropyl-10-((2-(4,4-difluoropiperidin-1-yl)-5-fluoropyridin-4-yl)amino)-3,3-difluoro-7-methyl-1,2,3,4-tetrahydro-[1,4]oxazepino[2,3-c]quinolin-6(7H)-one], the IC50 was 58.9 nM.
In the case of `Cn1c(=O)c2c(c3cc(Nc4nc(N5CC[C@@H](F)[C@@H](F)C5)ncc4Cl)ccc31)N[C@@H](C1CC1)C(F)(F)CO2` (racemic) [Example 10a, (S)-10-((5-chloro-2-((3S,4R)-3,4-difluoropiperidin-1-yl)pyrimidin-4-yl)amino)-2-cyclopropyl-3,3-difluoro-7-methyl-1,2,3,4-tetrahydro-[1,4]oxazepino[2,3-c]quinolin-6(7H)-one; (S)-10-((5-chloro-2-((3R,4S)-3,4-difluoropiperidin-1-yl)pyrimidin-4-yl)amino)-2-cyclopropyl-3,3-difluoro-7-methyl-1,2,3,4-tetrahydro-[1,4]oxazepino[2,3-c]quinolin-6(7H)-one], the IC50 is reported as 12.3 nM.
In the case of `CC1CC(C(=O)N2CCC2)CN(c2ncc(Cl)c(Nc3ccc4c(c3)c3c(c(=O)n4C)OCC(F)(F)[C@H](C4CC4)N3)n2)C1` (stereo partly drawn) [Example 12x30, (2S)-10-((2-(3-(azetidine-1-carbonyl)-5-methylpiperidin-1-yl)-5-chloropyrimidin-4-yl)amino)-2-cyclopropyl-3,3-difluoro-7-methyl-1,2,3,4-tetrahydro-[1,4]oxazepino[2,3-c]quinolin-6(7H)-one], the IC50 is reported as 2 nM.
`CCC1CCCN(c2ncc(Cl)c(Nc3ccc4c(c3)c3c(c(=O)n4C)OCC(F)(F)[C@H](C4CC4)N3)n2)C1` (mixture of isomers) [Example 11b, (S)-10-((5-chloro-2-((R)-3-ethylpiperidin-1-yl)pyrimidin-4-yl)amino)-2-cyclopropyl-3,3-difluoro-7-methyl-1,2,3,4-tetrahydro-[1,4]oxazepino[2,3-c]quinolin-6(7H)-one:(S)-10-((5-chloro-2-((S)-3-ethylpiperidin-1-yl)pyrimidin-4-yl)amino)-2-cyclopropyl-3,3-difluoro-7-methyl-1,2,3,4-tetrahydro-[1,4]oxazepino[2,3-c]quinolin-6(7H)-one (1:1)] was tested, and the IC50 was 33.1 nM.
`Cn1c(=O)c2c(c3cc(Nc4nc(N5CCN6CCCC6C5)ncc4Cl)ccc31)N[C@@H](C1CC1)C(F)(F)CO2` (mixture of isomers) [Example 12h, (S)-10-((5-chloro-2-((S)-hexahydropyrrolo[1,2-a]pyrazin-2(1H)-yl)pyrimidin-4-yl)amino)-2-cyclopropyl-3,3-difluoro-7-methyl-1,2,3,4-tetrahydro-[1,4]oxazepino[2,3-c]quinolin-6(7H)-one:(S)-10-((5-chloro-2-((R)-hexahydropyrrolo[1,2-a]pyrazin-2(1H)-yl)pyrimidin-4-yl)amino)-2-cyclopropyl-3,3-difluoro-7-methyl-1,2,3,4-tetrahydro-[1,4]oxazepino[2,3-c]quinolin-6(7H)-one (1:1)] gave an IC50 of 2.04 nM.
Molecule `Cn1c(=O)c2c(c3cc(Nc4nc(N5CCCC6CC65)ncc4Cl)ccc31)N[C@@H](C1CC1)C(F)(F)CO2` (stereo partly drawn) [Example 12x25, (2S)-10-((2-(2-azabicyclo[4.1.0]heptan-2-yl)-5-chloropyrimidin-4-yl)amino)-2-cyclopropyl-3,3-difluoro-7-methyl-1,2,3,4-tetrahydro-[1,4]oxazepino[2,3-c]quinolin-6(7H)-one] has an IC50 of 15.8 nM.
Molecule `[2H]C([2H])([2H])N1CCN(c2ncc(Cl)c(Nc3ccc4c(c3)c3c(c(=O)n4C)OCC(F)(F)[C@H](C4CC4)N3)n2)CC(O)C1` (stereo partly drawn) [Example 12x15-d3, (2S)-10-((5-chloro-2-(6-hydroxy-4-(methyl-d3)-1,4-diazepan-1-yl)pyrimidin-4-yl)amino)-2-cyclopropyl-3,3-difluoro-7-methyl-1,2,3,4-tetrahydro-[1,4]oxazepino[2,3-c]quinolin-6(7H)-one] has an IC50 of 1.78 nM.
`Cn1c(=O)c2c(c3cc(Nc4nc(N5CCC(F)CC5)ncc4Cl)ccc31)N[C@@H](C1CC1)C(F)(F)CO2` [Example 12x42, (S)-10-((5-chloro-2-(4-fluoropiperidin-1-yl)pyrimidin-4-yl)amino)-2-cyclopropyl-3,3-difluoro-7-methyl-1,2,3,4-tetrahydro-[1,4]oxazepino[2,3-c]quinolin-6(7H)-one] gave an IC50 of 6.17 nM.
`Cn1c(=O)c2c(c3cc(Nc4nc(N5CCNCC(O)C5)ncc4Cl)ccc31)N[C@@H](C1CC1)C(F)(F)CO2` (stereo partly drawn) [Example 12x14, (2S)-10-((5-chloro-2-(6-hydroxy-1,4-diazepan-1-yl)pyrimidin-4-yl)amino)-2-cyclopropyl-3,3-difluoro-7-methyl-1,2,3,4-tetrahydro-[1,4]oxazepino[2,3-c]quinolin-6(7H)-one] gave an IC50 of 3.47 nM.
For `C#CC1CCCN(c2ncc(Cl)c(Nc3ccc4c(c3)c3c(c(=O)n4C)OCC(F)(F)[C@H](C4CC4)N3)n2)C1` (stereo partly drawn) [Example 12x22, (2S)-10-((5-chloro-2-(3-ethynylpiperidin-1-yl)pyrimidin-4-yl)amino)-2-cyclopropyl-3,3-difluoro-7-methyl-1,2,3,4-tetrahydro-[1,4]oxazepino[2,3-c]quinolin-6(7H)-one], the IC50 was 22.9 nM.
`Cn1c(=O)c2c(c3cc(Nc4nc(N5CC[C@@H](F)[C@H](F)C5)ncc4Cl)ccc31)N[C@@H](C1CC1)C(F)(F)CO2` (racemic) [Example 10b, (S)-10-((5-chloro-2-((3S,4S)-3,4-difluoropiperidin-1-yl)pyrimidin-4-yl)amino)-2-cyclopropyl-3,3-difluoro-7-methyl-1,2,3,4-tetrahydro-[1,4]oxazepino[2,3-c]quinolin-6(7H)-one; (S)-10-((5-chloro-2-((3R,4R)-3,4-difluoropiperidin-1-yl)pyrimidin-4-yl)amino)-2-cyclopropyl-3,3-difluoro-7-methyl-1,2,3,4-tetrahydro-[1,4]oxazepino[2,3-c]quinolin-6(7H)-one] gave an IC50 of 15.8 nM.
`Cn1c(=O)c2c(c3cc(Nc4nc(N5CCC(C)(O)C5)ncc4Cl)ccc31)N[C@@H](C1CC1)C(F)(F)CO2` (mixture of isomers) [Example 12a, (S)-10-((5-chloro-2-((R)-3-hydroxy-3-methylpyrrolidin-1-yl)pyrimidin-4-yl)amino)-2-cyclopropyl-3,3-difluoro-7-methyl-1,2,3,4-tetrahydro-[1,4]oxazepino[2,3-c]quinolin-6(7H)-one:(S)-10-((5-chloro-2-((S)-3-hydroxy-3-methylpyrrolidin-1-yl)pyrimidin-4-yl)amino)-2-cyclopropyl-3,3-difluoro-7-methyl-1,2,3,4-tetrahydro-[1,4]oxazepino[2,3-c]quinolin-6(7H)-one (1:1)] showed an IC50 of 6.31 nM.
`Cn1c(=O)c2c(c3cc(Nc4nc(N5CCC[C@H]5CO)ncc4Cl)ccc31)N[C@@H](C1CC1)C(F)(F)CO2` [Example 12x44, (S)-10-((5-chloro-2-((S)-2-(hydroxymethyl)pyrrolidin-1-yl)pyrimidin-4-yl)amino)-2-cyclopropyl-3,3-difluoro-7-methyl-1,2,3,4-tetrahydro-[1,4]oxazepino[2,3-c]quinolin-6(7H)-one] gave an IC50 of 5.01 nM.
Molecule `Cn1c(=O)c2c(c3cc(Nc4nc(N5C[C@H]6C[C@@H]5CO6)ncc4Cl)ccc31)N[C@@H](C1CC1)C(F)(F)CO2` [Example 1e, (S)-10-((2-((1R,4R)-2-oxa-5-azabicyclo[2.2.1]heptan-5-yl)-5-chloropyrimidin-4-yl)amino)-2-cyclopropyl-3,3-difluoro-7-methyl-1,2,3,4-tetrahydro-[1,4]oxazepino[2,3-c]quinolin-6(7H)-one] has an IC50 of 3.24 nM.
`C[C@@H]1C[C@@H](O)CN(c2ncc(Cl)c(Nc3ccc4c(c3)c3c(c(=O)n4C)OCC(F)(F)[C@H](C4CC4)N3)n2)C1` [Example 9zb, (S)-10-((5-chloro-2-((3R,5R)-3-hydroxy-5-methylpiperidin-1-yl)pyrimidin-4-yl)amino)-2-cyclopropyl-3,3-difluoro-7-methyl-1,2,3,4-tetrahydro-[1,4]oxazepino[2,3-c]quinolin-6(7H)-one] showed an IC50 of 9.77 nM.
Molecule `CN(C)c1ncc(Cl)c(Nc2ccc3c(c2)c2c(c(=O)n3C)OCC(F)(F)[C@H](C3CC3)N2)n1` [Example 8a, (S)-10-((5-chloro-2-(dimethylamino)pyrimidin-4-yl)amino)-2-cyclopropyl-3,3-difluoro-7-methyl-1,2,3,4-tetrahydro-[1,4]oxazepino[2,3-c]quinolin-6(7H)-one] has an IC50 of 10.7 nM.
Work on `Cn1c(=O)c2c(c3cc(Nc4nc(N5CC(C)(O)C5)ncc4Cl)ccc31)N[C@@H](C1CC1)C(F)(F)CO2` [Example 1n, (S)-10-((5-chloro-2-(3-hydroxy-3-methylazetidin-1-yl)pyrimidin-4-yl)amino)-2-cyclopropyl-3,3-difluoro-7-methyl-1,2,3,4-tetrahydro-[1,4]oxazepino[2,3-c]quinolin-6(7H)-one] yielded an IC50 of 13.8 nM.
